Measurements taken from publication PMC4060102, “Improved Histone Deacetylase Inhibitors as Therapeutics for the Neurodegenerative Disease Friedreich's Ataxia: A New Synthetic Route” (Pharmaceuticals, 2011).

Experiments:
recombinant HDAC1 = recombinant HDAC1 (Homo sapiens, UniProt Q13547); experiment: HDAC enzyme inhibition assay (Fluor-de-Lys), HDAC1
[1] = test system: GM15850 cells (FRDA lymphoblastoid cell line); experiment: In-cell deacetylase inhibition assay (DAC assay); assay type: cell-based, human; conditions: 4 h incubation
Text: Compound dilutions were made in 100% DMSO followed by parallel dilution in media with 2% DMSO. […] The final concentration of DMSO in each well was 0.2%.

[2] = Acid stability determination; assay type: physicochemical; conditions: pH = 2, 50 °C; for half-life at 100 µM: 0.01 M HCl in deionized water, read-out: t1/2 in acidic conditions (converted)
Experimental: Immediately after mixing, an aliquot (100 μL) was sampled and analyzed by HPLC/UV. The area under the compound peak was determined and used as the time zero reference point. […] These were analyzed by the same HPLC/UV method and the area of the peak corresponding to the test compound was measured. Percent remaining at a given time point was then calculated as the ratio of the area under the peak after incubation to that at time zero times 100.

HDAC3/NcoR2 = HDAC3/NcoR2 (Homo sapiens, UniProt O15379); experiment: HDAC enzyme inhibition assay (Fluor-de-Lys), HDAC3; conditions: for selectivity for HDAC3 over HDAC1: ratio of IC50 values HDAC1/HDAC3
Sequence of HDAC3/NcoR2 (O15379 whole entry): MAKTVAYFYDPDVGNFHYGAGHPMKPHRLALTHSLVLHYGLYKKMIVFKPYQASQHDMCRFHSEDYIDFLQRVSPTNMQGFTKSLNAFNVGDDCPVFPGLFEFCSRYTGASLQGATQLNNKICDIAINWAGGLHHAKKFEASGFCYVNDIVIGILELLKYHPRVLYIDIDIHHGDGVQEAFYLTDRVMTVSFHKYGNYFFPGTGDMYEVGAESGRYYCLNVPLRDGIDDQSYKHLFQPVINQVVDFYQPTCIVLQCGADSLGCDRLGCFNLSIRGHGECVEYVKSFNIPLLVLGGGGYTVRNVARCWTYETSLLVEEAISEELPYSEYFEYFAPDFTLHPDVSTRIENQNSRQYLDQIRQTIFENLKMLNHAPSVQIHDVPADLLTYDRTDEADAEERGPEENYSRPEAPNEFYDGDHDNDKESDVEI
Sequence of HDAC3/NcoR2 (Q9Y618 395-489 partner limits assumed): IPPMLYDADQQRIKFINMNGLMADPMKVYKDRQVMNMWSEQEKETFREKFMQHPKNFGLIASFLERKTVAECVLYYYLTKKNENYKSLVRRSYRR

in vivo = conditions: rat, 5 mg/kg
[3] = Cytotoxicity, antiproliferation assay; assay type: cell-based; conditions: human, Hct116 cells
Hct116 cells = experiment: Cytotoxicity, antiproliferation assay; assay type: cell-based; conditions: for ratio cytotoxicity/DAC: Hct116 antiproliferation IC50 / in-cell DAC IC50
recombinant HDAC2 = recombinant HDAC2 (Homo sapiens, UniProt Q92769); experiment: HDAC enzyme inhibition assay (Fluor-de-Lys), HDAC2
Sequence of recombinant HDAC2 (Q92769 whole entry): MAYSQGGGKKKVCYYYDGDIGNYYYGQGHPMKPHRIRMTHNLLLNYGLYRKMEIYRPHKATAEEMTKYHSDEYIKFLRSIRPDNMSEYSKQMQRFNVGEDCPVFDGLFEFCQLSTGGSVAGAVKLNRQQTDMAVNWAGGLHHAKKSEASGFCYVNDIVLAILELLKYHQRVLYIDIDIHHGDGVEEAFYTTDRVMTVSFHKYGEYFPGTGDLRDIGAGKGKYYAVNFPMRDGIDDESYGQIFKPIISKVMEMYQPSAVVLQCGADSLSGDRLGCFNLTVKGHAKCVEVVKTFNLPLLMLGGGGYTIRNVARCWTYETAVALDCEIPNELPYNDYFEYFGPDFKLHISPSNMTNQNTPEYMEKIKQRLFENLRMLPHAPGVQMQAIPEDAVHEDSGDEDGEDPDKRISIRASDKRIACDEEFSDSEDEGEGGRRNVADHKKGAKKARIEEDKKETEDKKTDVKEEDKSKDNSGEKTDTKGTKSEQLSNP

[4] = test system: FXN gene transcription in primary lymphocytes from a FRDA patient; experiment: Frataxin mRNA assay (quantitative RT-PCR); assay type: cell-based, human; conditions: 10 μM compound, 48 h, primary lymphocytes from FRDA patient donor blood, normalized to DMSO control
Experimental: In general, the activity of a compound against HDAC3 is related to its ability to increase FXN gene transcription. Compounds click-1 and -2 were assayed for their ability to increase transcription of the FXN gene in primary lymphocytes from a FRDA patient, as previously described.
Quantitative RT-PCR was used to estimate FXN mRNA levels after treatment with 10 μM compound for 48 h, and values were normalized to the level of FXN mRNA observed for a DMSO vehicle control.
Figure 3 Click-derived HDAC inhibitors induce frataxin gene expression in primary lymphocytes isolated from FRDA patient donor blood samples, compared to a standard pimelic o-aminobenzamide (109). Concentration of each compound is 10 μM.

[5] = Compound stability (method not described); assay type: physicochemical; conditions: conditions not stated
Text: All three azides 5, 8 and 16 were subjected to click chemistry with common intermediate 3 to give the corresponding triazole products click-1, click-2 and click-3 (Scheme 5). Each compound was characterized by ^1H-, ^13C-NMR and mass spectrometry.

[6] = Brain penetration in mouse; assay type: in vivo; conditions: brain and plasma

Sequence of recombinant HDAC1 (Q13547 whole entry): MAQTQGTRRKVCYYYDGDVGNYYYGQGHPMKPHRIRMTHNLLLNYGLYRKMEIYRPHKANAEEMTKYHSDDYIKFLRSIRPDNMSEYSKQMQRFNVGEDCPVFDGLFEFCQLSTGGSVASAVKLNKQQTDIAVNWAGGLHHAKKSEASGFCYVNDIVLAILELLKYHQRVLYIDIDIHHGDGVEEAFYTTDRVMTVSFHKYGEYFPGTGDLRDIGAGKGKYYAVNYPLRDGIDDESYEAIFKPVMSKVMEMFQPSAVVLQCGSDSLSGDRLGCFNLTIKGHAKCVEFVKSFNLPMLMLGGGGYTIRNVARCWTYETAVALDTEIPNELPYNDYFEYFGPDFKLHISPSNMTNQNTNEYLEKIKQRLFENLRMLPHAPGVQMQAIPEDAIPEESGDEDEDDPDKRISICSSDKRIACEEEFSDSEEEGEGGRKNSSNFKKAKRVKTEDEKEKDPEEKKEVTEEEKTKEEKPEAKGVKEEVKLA

| Structure (SMILES) | IC50 (recombinant HDAC1) [nM] | IC50 ([1]; Homo sapiens) [nM] | half-life at 100 µM [2] [h] | improvement of acid half-life relative to HDACi 109 [2] [fold] | IC50 (HDAC3/NcoR2) [nM] | selectivity for HDAC3 over HDAC1 (HDAC3/NcoR2) [fold] | IC50 [3] [nM] | ratio cytotoxicity/DAC (Hct116 cells) | IC50 (recombinant HDAC2) [nM] | promoting transcription of the silenced FXN gene (FXN mRNA) [4] | further results |
| --- | --- | --- | --- | --- | --- | --- | --- | --- | --- | --- | --- |
| Nc1ccccc1NC(=O)/C=C/c1cn(CC=Cc2ccccc2)nn1 [Click-1, (E)-N-(2-Aminophenyl)-3-(1-cinnamyl-1H-1,2,3-triazol-4-yl)acrylamide] | 66 | 5600 | 33 | 5.5 | 28 | 2.4 | 23000 | 4.1 | 477 | highly active | Kp (in vivo; brain and plasma, intravenous): 0.33; Cmax (in vivo; brain, iv): 800 ng/g; Tmax (in vivo; brain, iv): 5 min |
| Nc1ccccc1NC(=O)c1ccc(CNC(=O)OCc2cccnc2)cc1 [MS-275, reference compound] |  |  |  |  |  |  |  |  |  |  | IC50 [1]: 1900 nM; IC50 (Hct116 cells; Hct116 cells): 1000 nM |
| Nc1ccccc1NC(=O)/C=C/c1cn(CCOc2ccc3cc[nH]c3c2)nn1 [Click-3, (E)-3-(1-(2-((1H-Indol-6-yl)oxy)ethyl)-1H-1,2,3-triazol-4-yl)-N-(2-aminophenyl)acrylamide] |  | 29400 |  |  |  |  |  |  |  |  | stability [5]: poor stability |
| Cc1ccc(C(=O)NCCCCCC(=O)Nc2ccccc2N)cc1 [compound 109] |  |  | 6 |  |  |  |  |  |  |  |  |
| Nc1ccccc1NC(=O)/C=C/c1cn(C/C=C/c2ccc3cc[nH]c3c2)nn1 [Click-2, (E)-3-(1-((E)-3-(1H-Indol-6-yl)allyl)-1H-1,2,3-triazol-4-yl)-N-(2-aminophenyl)acrylamide] | 46 | 5100 | 24 | 4 | 39 | 1.2 | 27000 | 5.3 | 466 | highly active | Kp [6]: 0.03 |
